Assays:
[1] = in vivo; cited from earlier work
[2] = system: serum C-terminal cross-linking telopeptide of type I collagen (CTX); assay: Serum CTX (bone resorption) after s.c. GLP-1, Example 5; type: in vivo, human; conditions: GLP-1 1.5 nmol/kg s.c.
Method: Eight healthy young people were enrolled (five male, three female). […] Participants arrived in the morning after an overnight fast. Blood samples were collected before (−15 and 0 min) and after injection (15, 30, 45, 60, 90 and 120 min). After last participant's last visit, bone resorption was determined by measurements of serum C-terminal cross-linking telopeptide of type I collagen (CTX; IDS Immunodiagnostic Systems GmbH, Frankfurt am Main, Germany).

[3] = system: parathyroid hormone (PTH); assay: Serum PTH after s.c. injection, Example 3; type: in vivo, human; conditions: for time of maximum effect on PTH: GIP 200 μg or GLP-2 800 μg s.c.; for PTH level at maximum effect: 15 min after injection
Method: Eight healthy young men were enrolled. The study included three study days in randomised order (with a minimum of 1 week washout between study days) where human GIP (200 μg), human GLP-2 (800 μg), or placebo was injected subcutaneously. Participants arrived in the morning (fasted overnight) and received the injection around 8.30 a.m. […] After last participant's last visit, bone resorption was determined by measurements of serum C-terminal cross-linking telopeptide of type I collagen (CTX; IDS Immunodiagnostic Systems GmbH, Frankfurt am Main, Germany)
(§1) Eight healthy young men were enrolled, and the study was conducted as outlined in Example 1. After last participant's last visit, bone resorption was determined by measurements of CTX (IDS Immunodiagnostic Systems GmbH, Frankfurt am Main, Germany) and bone formation was determined by measurements of serum N-terminal propeptide of type 1 collagen (P1NP; IDS Immunodiagnostic Systems GmbH, Frankfurt am Main, Germany). In addition, serum concentration of parathyroid hormone (PTH; IDS Immunodiagnostic Systems GmbH, Frankfurt am Main, Germany) was measured.

CTX = CTX (bone resorption) after s.c. injection alone or in combination, Example 2/4 study; type: in vivo, human; conditions: Example 4; for time of maximum effect on bone resorption (CTX): GIP 100 μg, GLP-2 400 μg or both s.c.
Method: (§2) Ten healthy young men are enrolled and the study includes four study days in randomised order (with a minimum of 1 week washout between study days) where human GIP (100 μg), human GLP-2 (400 μg), GIP+GLP-2 (100 μg+400 μg), or placebo are injected subcutaneously. The participants arrive in the morning (fasted overnight) and receive the injection around 8.30 a.m. Blood samples are collected before (−25 and −10) and every 30 minutes after injection (30, 60, 90, 120, 180 and 240 min) injection. After last participant's last visit, samples are analysed for concentrations of bone resorption markers (CTX).
as §1, with “Ten” for “Eight”, “are enrolled” for “were enrolled,”, “2.” for “1.”, “measured. The doses of GIP and GLP-2 were selected as discussed in example 2.” for “measured.”

[4] = system: serum N-terminal propeptide of type 1 collagen (P1NP); assay: Serum P1NP (bone formation) after s.c. injection, Example 3; type: in vivo, human; conditions: for time of maximum effect on bone formation (P1NP): GIP 200 μg or GLP-2 800 μg s.c.
Method: (§3) Eight healthy young men were enrolled. The study included three study days in randomised order (with a minimum of 1 week washout between study days) where human GIP (200 μg), human GLP-2 (800 μg), or placebo was injected subcutaneously. Participants arrived in the morning (fasted overnight) and received the injection around 8.30 a.m. Blood samples were collected before (−25 and −10 min) and every 30 minutes after injection (30, 60, 90, 120, 180 and 240 min). After last participant's last visit, bone resorption was determined by measurements of serum C-terminal cross-linking telopeptide of type I collagen (CTX; IDS Immunodiagnostic Systems GmbH, Frankfurt am Main, Germany)
as §1

[5] = system: serum C-terminal cross-linking telopeptide of type I collagen (CTX); assay: Serum CTX (bone resorption) after s.c. injection in healthy young men, Example 1/3 study; type: in vivo, human; conditions: for reduction in bone resorption (CTX): 200 μg GIP and 800 μg GLP-2, Example 1 as summarised in Example 2; for time of maximum effect on bone resorption (CTX): GIP 200 μg or GLP-2 800 μg s.c.
Method: as §3, §1

[6] = system: serum N-terminal propeptide of type 1 collagen (P1NP); assay: Serum P1NP (bone formation) after s.c. injection alone or in combination, Example 4; type: in vivo, human; conditions: for time of maximum effect on bone formation (P1NP): GIP 100 μg or GLP-2 400 μg s.c.
Method: as §2
as §1, with “Ten” for “Eight”, “are enrolled” for “were enrolled,”, “2.” for “1.”, “measured. The doses of GIP and GLP-2 were selected as discussed in example 2.” for “measured.”

[7] = system: parathyroid hormone (PTH); assay: Serum PTH after s.c. injection alone or in combination, Example 4; type: in vivo, human; conditions: for time of maximum effect on PTH: GIP 100 μg, GLP-2 400 μg or both s.c.
Method: as §2, with “Blood samples are collected before (−25 and −10) and every 30 minutes after injection (30, 60, 90, 120, 180 and 240 min) injection.” left out
as §1, with “Ten” for “Eight”, “are enrolled” for “were enrolled,”, “2.” for “1.”, “measured. The doses of GIP and GLP-2 were selected as discussed in example 2.” for “measured.”

[8] = system: serum C-terminal cross-linking telopeptide of type I collagen (CTX); assay: Nocturnal CTX (bone resorption) in postmenopausal women, Example 6; type: in vivo, human
Method: Ten healthy postmenopausal women are enrolled and the study includes four study days in randomised order (with a minimum of 1 week washout between study days) where human GIP (hGIP 100 μg), human GLP-2 ([…]), hGIP+hGLP-2 (100 μg+400 μg), or placebo, are injected subcutaneously. The participants arrive in the evening around 9 p.m. (fasted from ˜7 p.m.) and receive the injections at 10 p.m. Blood samples are collected before (−10 and −5 min) and after injection (7, 15, 30, 45, 60, 90, 120, 180 and 240 min). Bone resorption was determined by measurements of serum C-terminal cross-linking telopeptide of type I collagen (CTX; IDS Immunodiagnostic Systems GmbH, Frankfurt am Main, Germany). The doses of GIP and GLP-2 were selected as discussed in example 2.

GLP-1: human glucagon-like peptide-1; which form (SEQ ID NO: 7, 8 or 9) was injected is not stated
fasting plasma levels [1]: 0 to 15 pmol/L | time of maximum effect on bone resorption (CTX) [2]: 120 min | bone resorption (CTX) at maximum effect ([2]; 120 min after injection, healthy young people): 74.4±3.7 % of base line

HADGSFSDEMNTILDNLAARDFINWLIQTKITD [GLP-2]
time of maximum effect on PTH [3]: 15 min | PTH level at maximum effect ([3]; GLP-2 800 μg s.c.): 71.9±13.9 % of basal levels | time of maximum effect on bone resorption (CTX) (CTX): 210 min | bone resorption (CTX) at maximum effect (CTX; GLP-2 400 μg s.c. alone, 210 min after injection): 58.2±16.0 % of basal | time of maximum effect on bone formation (P1NP) [4]: 45 min | bone formation (P1NP) at maximum effect (reduction) ([4]; GLP-2 800 μg s.c., 45 min after injection): 88.1±8.5 % of base line | reduction in bone resorption (CTX) [5]: ~50% | time of maximum effect on bone resorption (CTX) ([5]; Example 1): 180 min | time of maximum effect on bone resorption (CTX) ([5]; Example 3): 180 min | bone resorption (CTX) at maximum effect ([5]; GLP-2 800 μg s.c., 180 min after administration, Example 3 (completed study)): 60.5±14.1 % of base line | bone resorption (CTX) at maximum effect ([5]; GLP-2 800 μg s.c., 180 min after administration, healthy young men, Example 1): 63.4±3.4 % of base line | time of maximum effect on bone formation (P1NP) [6]: 60 min | bone formation (P1NP) at maximum effect (reduction) ([6]; GLP-2 400 μg s.c., 60 min after injection): 88.2±9.4 % of base line | time of maximum effect on PTH [7]: 45 min | PTH level at maximum effect ([7]; GLP-2 400 μg s.c., 45 min after injection): 65.7±16.8 % of basal levels | nocturnal bone resorption (CTX) compared to placebo ([8]; GLP-2 400 μg s.c. at 10 p.m.): reduced bone resorption during the entire study period

YAEGTFISDYSIAMDKIHQQDFVNWLLAQKGKKNDWKHNITQ [GIP]
time of maximum effect on PTH [3]: 15 min | PTH level at maximum effect ([3]; GIP 200 μg s.c.): 71.2±11.4 % of basal levels | bone resorption (CTX) at maximum effect (CTX; GIP 100 μg s.c. alone, 90 min after administration): 57.6±17.9 % of basal | time of maximum effect on bone resorption (CTX) (CTX): 90 min | time of maximum effect on bone formation (P1NP) [4]: 30 min | bone formation (P1NP) at maximum effect (increase) ([4]; GIP 200 μg s.c., 30 min after injection): 115.1±6.2 % of base line | reduction in bone resorption (CTX) [5]: ~50% | time of maximum effect on bone resorption (CTX) ([5]; Example 1): 90 min | time of maximum effect on bone resorption (CTX) ([5]; Example 3): 90 min | bone resorption (CTX) at maximum effect ([5]; GIP 200 μg s.c., 90 min after injection, Example 3 (completed study)): 55.3±17.9 % of base line | bone resorption (CTX) at maximum effect ([5]; GIP 200 μg s.c., 90 min after injection, healthy young men, Example 1): 56.2±11.2 % of base line | time of maximum effect on bone formation (P1NP) [6]: 30 min | bone formation (P1NP) at maximum effect (increase) ([6]; GIP 100 μg s.c., 30 min after injection): 111.1±9.0 % of base line | PTH level at maximum effect ([7]; GIP 100 μg s.c., 15 min after injection): 73.0±19.2 % of basal levels | time of maximum effect on PTH [7]: 15 min | nocturnal bone resorption (CTX) compared to placebo ([8]; GIP 100 μg s.c. at 10 p.m.): reduced bone resorption was seen from 30 min to 120 min
